From BindingDB's records for patent US12187701 (Dana-Farber Cancer Institute, 2025)
pIC50: −log10 of the molar value.

Biological target: Cyclin-dependent kinase 14 (Homo sapiens, UniProt O94921)
Assay: In vitro Kinase Assay
Description: Lanthascreen Eu kinase binding assays were conducted for Cdk14/CycY largely as performed in the commercial assay service by Life Technologies, but included a 30 minute pre-incubation step of the kinase with candidate compounds to facilitate covalent bond formation.

Chain of Cyclin-dependent kinase 14 (O94921 whole entry): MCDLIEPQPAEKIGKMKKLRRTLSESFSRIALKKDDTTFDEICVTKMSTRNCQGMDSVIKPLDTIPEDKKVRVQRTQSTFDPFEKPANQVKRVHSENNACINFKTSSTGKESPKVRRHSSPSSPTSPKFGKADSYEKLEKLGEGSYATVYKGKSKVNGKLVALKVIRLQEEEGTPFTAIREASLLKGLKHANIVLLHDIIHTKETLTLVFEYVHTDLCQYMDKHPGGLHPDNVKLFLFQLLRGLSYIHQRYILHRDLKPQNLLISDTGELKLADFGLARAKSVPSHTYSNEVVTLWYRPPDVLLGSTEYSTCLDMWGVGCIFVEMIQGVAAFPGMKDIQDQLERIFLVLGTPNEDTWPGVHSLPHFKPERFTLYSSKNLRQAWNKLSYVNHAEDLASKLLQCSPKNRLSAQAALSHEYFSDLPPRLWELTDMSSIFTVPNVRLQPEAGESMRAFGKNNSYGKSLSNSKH

pIC50: 6.97
Compound: CN(C)C/C=C/C(=O)Nc1cccc(CNC(=O)c2n[nH]cc2NC(=O)c2c(Cl)cccc2Cl)c1 [US12187701, Compound FMF-05-064-2]
